pIC50: −log10 of the molar value.
What was measured:
[1] = Human liver microsomal stability/clearance; format: in vitro ADME; conditions: human liver microsomes; first value of Human/Mouse cell; read-out: Liver microsomal clearance (Human)
Description: (§1) Human and mouse liver microsomal clearance assays were carried out in CROWN Biosciences (Taicang, China). The human liver microsomes (Cat No. X008067, Lot No. KQB) and mouse liver microsomes (Cat No. M1000, Lot No. 1210302) were purchased from Celsis and Xenotech, respectively.
(§2) 5 μL of test compound stock solution was diluted with 495 μL of 1:1 Methanol/Water (final concentration: 100 μM, 50% MeOH) and combined with 534 μL of the respective liver microsome solution (final concentration: 1.111 μM, 0.555% MeOH). The final concentration of the liver microsome solution was 0.7 mg protein/mL.
(§3) Incubations of the liver microsome solutions were performed in a 96 well plate at 37° C. 90 μL of the liver microsome solutions were added to Blank, and 90 μL of working solution of the test compound was added to all plates except the Blank.
(§4) All plates thus obtained were warmed in water bath at 37° C. for 10 min, and 10 μL of NADPH co-factor solution comprising 42 mg of β-nicotinamide adenine dinucleotide phosphate (Sigma Cat. No. N0505 Lot 020M7009V), 84 mg of isocitric acid (Sigma Cat. No. 11252 Lot 119K1099) and 0.478 mL of isocitric dehydrogenase (Sigma Cat. No. 12002 Lot 086K7055, 15 units/mg protein, warmed in water bath at 37° C. for 5 min was added to the plates. The resulting plates were incubated at 37° C. in the following order: T60 (The test compounds were incubated with the liver microsomal solution and NADPH for 60 min at 37° C.), T30 (such as for 30 min.), and T10 (such as for 10 min.). 300 μL of a cold (4° C.) stop solution (acetonitrile (ACN) including 500 nM of tolbutamide as internal standard) and 10 μL of NADPH co-factor solution to starting plate (T0: 100% of the parent compound without any reaction) were added to the plates. The reaction was stopped by adding 300 μL of the cold (4° C.) stop solution to the other plates in the following order: T10 first, then T30 and T60.
(§5) The samples were centrifuged at 4,000 rpm for 20 min and transferred to Bioanalytical Services for liquid chromatography-mass spectrometry (LC-MS)/MS (Waters UPLC/API 4000, 10 μL injection) analysis.

[2] = Mouse liver microsomal stability/clearance; format: in vitro ADME; conditions: mouse liver microsomes; second value of Human/Mouse cell; read-out: Liver microsomal clearance (Mouse)
Description: as §1, §2, §3, §4, §5

[3] = system: MOLM13 (acute myeloid Leukemia); test: Anti-proliferative activity, MOLM13; format: cell-based; conditions: Homo sapiens, MOLM-13, read-out: Cell proliferation, IC50

COc1ccc2c(c1)C(c1ccc(Cl)cc1)=N[C@@H](COS(C)(=O)=O)c1nnc(C)n1-2 [Compound 1, (R)-(6-(4-chlorophenyl)-8-methoxy-1-methyl-4H-benzo[f]-[1,2,4]triazolo[4,3-a][1,4]diazepin-4-yl)methyl methanesulfonate]
microsomal CLint at 1 µM [1]: 2.3 µL/min/mg
microsomal CLint at 1 µM [2]: 4.7 µL/min/mg
pIC50 [3]: 5.82

Source: patent US9884874B2, “Bromodomain-inhibiting compounds and pharmaceutical composition comprising same for preventing or treating a cancer” (KAINOS MEDICINE, INC., priority 2014, dated 2018)
